Results taken from patent publication USRE38257E1, “Piperdine derivatives and hypotensives containing the same” (Ajinomoto Co., Inc., priority 1988, dated 2003).

System: male spontaneously hypertensive rats
Assay: Decrease in systolic blood pressure in spontaneously hypertensive rats after intravenous bolus injection, indirect (tail-cuff) method
Assay type: in vivo, rat
Details: for Decrease in systolic blood pressure (mmHg) time after administration (hour) 0.5: 0.5 hour after administration; for Decrease in systolic blood pressure (mmHg) time after administration (hour) 4: 4 hours after administration
Experimental: As test animals, four male spontaneously hypertensive rats (weight 400 to 440 g) that were sufficiently adapted for feeding and in which hypertension was confirmed were used.
Physiological saline aqueous solution containing 2.5% Nicolle and 2.5% ethanol of sample was intravenously administered by bolus injection at a dose of 1 ml per 1 kg of body weight. Systolic blood pressure after administration was measured by the indirect (tail-cuff) method.

[1] = dose 10 mg/kg i.v. bolus, hydrochloride, 10 mg/kg

| SMILES | Decrease in systolic blood pressure (mmHg) time after administration (hour) 0.5 (dose 10 mg/kg i.v. bolus) | Decrease in systolic blood pressure (mmHg) time after administration (hour) 4 (dose 10 mg/kg i.v. bolus) | further results |
| --- | --- | --- | --- |
| C1=Cc2ccccc2C(=C2CCN(CCCC3CCCCC3)CC2)c2ccccc21.Cl [Example 9, 1-Cyclohexyl-3-(4-(5H-dibenzo[a,d]cyclohepten-5-ylidene)-1-piperidinyl)propane hydrochloride] | −91 mmHg | −19 mmHg |  |
| COc1ccc(C(=O)NCCN2CCC(=C3c4ccccc4C=Cc4ccccc43)CC2)cc1OC.Cl [Example 242, N-(2-(5H-Dibenzo[a,d]cyclohepten-5-ylidene)-1-piperidinyl)ethyl-3′,4′-dimethoxybenzamide hydrochloride] | −28 mmHg | 7 mmHg |  |
| COc1ccc(C(=O)CCCN2CCC(=C3c4ccccc4C=Cc4ccccc43)CC2)c(OC)c1OC.Cl [Example 171, 4-(4-(5H-Dibenzo[a,d]cyclohepten-5-ylidene)-1-piperidinyl)-2′,3′,4′-trimethoxybutyrophenone hydrochloride] | −122 mmHg | −8 mmHg |  |
| COc1ccc2c(c1OC)CCC(CCN1CCC(=C3c4ccccc4C=Cc4ccccc43)CC1)C2.Cl (stereo not drawn) [Example 318, 2-(3-(4-(5H-Dibenzo[a,d]cyclohepten-5-ylidene)-1-piperidinyl)-1-ethyl)-5,6-dimethoxy-1,2,34-tetrahydronaphthalene hydrochloride] | −83 mmHg | −57 mmHg |  |
| COC(=O)c1ccccc1C=CCN1CCC(=C2c3ccccc3C=Cc3ccccc32)CC1.Cl [Example 374, 4-(5H-Dibenzo[a,d]cyclohepten-5-ylidene)-1-(2-methoxycarbonylcinnamyl)piperidine hydrochloride] |  |  | Decrease in systolic blood pressure (mmHg) time after administration (hour) 0.5 (dose 3 mg/kg i.v. bolus): −119 mmHg; Decrease in systolic blood pressure (mmHg) time after administration (hour) 4 (dose 3 mg/kg i.v. bolus): 11 mmHg |
| COc1ccc(CN2CCC(=C3c4ccccc4C=Cc4ccccc43)CC2)cc1OC [Example 175, 4-(5H-Dibenzo[a,d]cyclohepten-5-ylidene)-1-(3,4-dimethoxybenzyl)piperidine] | −87 mmHg | −1 mmHg |  |
| COc1ccc(CCCN2CCC(=C3c4ccccc4C=Cc4ccccc43)CC2)c(OC)c1.Cl.Cl [Example 328, 3-(4-(5H-Dibenzo[a,d]cyclohepten-5-ylidene)-1-piperidinyl)-1-(2,4-dimethoxyphenyl)propane dihydrochloride] | −125 mmHg | −87 mmHg |  |
| COc1ccccc1CCCN1CCC(=C2c3ccccc3C=Cc3ccccc32)CC1.Cl [Example 298, 3-(4-(5H-Dibenzo[a,d]cyclohepten-5-ylidene)-1-piperidinyl)-1-(2-methoxyphenyl)propane hydrochloride] | −111 mmHg | −31 mmHg |  |
| Cl.O=C(CCN1CCC(=C2c3ccccc3C=Cc3ccccc32)CC1)NC1CCCCC1 [Example 226, N-(3,(4-(5H-Dibenzo[a,d]cyclohepten-5-ylidene)-1-piperidinyl)propanoyl)cyclohexylamine hydrochloride] | −131 mmHg | −16 mmHg |  |
| C1=Cc2ccccc2C(=C2CCN(CCCSc3ccccc3)CC2)c2ccccc21.Cl [Example 23, 3-(4-(5H-Dibenzo[a,d]cyclohepten-5-ylidene)-1-piperidinyl)-1-phenylthiopropane hydrochloride] | −34 mmHg | 10 mmHg |  |
| COc1ccc(C2(CCCN3CCC(=C4c5ccccc5C=Cc5ccccc54)CC3)OCCO2)cc1OC.Cl [Example 222] | −94 mmHg | −5 mmHg |  |
| Cl.c1ccc2c(c1)Sc1ccccc1C2=C1CCN(CCCCC2CCCCC2)CC1 [Example 182] | −11 mmHg | −6 mmHg |  |
| Cl.O=C(NCCN1CCCCC1=C1c2ccccc2C=Cc2ccccc21)c1ccccc1[N+](=O)[O-] [Example 291, N-(2-(5H-Dibenzo[a,d]cyclohepten-5-ylidene)-1-piperidinyl)ethyl-2-nitrobenzamide hydrochloride] |  |  | Decrease in systolic blood pressure (mmHg) time after administration (hour) 0.5 (dose 3 mg/kg i.v. bolus): −8 mmHg; Decrease in systolic blood pressure (mmHg) time after administration (hour) 4 (dose 3 mg/kg i.v. bolus): 15 mmHg |
| COc1ccc(CCCCN2CCC(=C3c4ccccc4C=Cc4ccccc43)CC2)cc1OC.Cl [Example 221, 4-(5H-Dibenzo[a,d]cyclohepten-5-ylidene)-1-(4-(3′,4′-dimethoxyphenyl)butyl)piperidine hydrochloride] | −70 mmHg | −13 mmHg |  |
| CCCCCCCN1CCC(=C2c3ccccc3C=Cc3ccccc32)CC1.Cl [Example 134, 4-(5H-Dibenzo[a,d]cyclohepten-5-ylidene)-1-heptylpiperidine hydrochloride] | −115 mmHg | −30 mmHg |  |
| Cl.O=C(CCCN1CCC(=C2c3ccccc3C=Cc3ccccc32)CC1)N1CCOCC1 [Example 245, 1-(4-(4-(5H-Dibenzo[a,d]cyclohepten-5-ylidene)-1-piperidinyl)butanoyl)morpholine hydrochloride] | −34 mmHg | −10 mmHg |  |
| Cc1ccccc1CN1CCC(=C2c3ccccc3C=Cc3ccccc32)CC1.Cl [Example 131, 4-(5H-Dibenzo[a,d]cyclohepten-5-ylidene)-1-(2-methylbenyl)piperidine hydrochloride] | −116 mmHg | 2 mmHg |  |
| COc1cccc(CN2CCC(=C3c4ccccc4CCc4ccccc43)CC2)c1.Cl [Example 184, 4-(10,11-dihydro-5H-dibenzo[a,d]cyclohepten-5-ylidene)-1-(3-methoxybenzyl)piperidine hydrochloride] | −16 mmHg | −4 mmHg |  |
| Cl.Cl.Nc1ccc(C=CCN2CCC(=C3c4ccccc4CCc4ccccc43)CC2)cc1 [Example 351, 1-(4-Aminocinnamyl)-4-(10,11-dihydro-5H-Dibenzo[a,d]cyclohepten-5-ylidene)-1-piperidine dihydrochloride] |  |  | Decrease in systolic blood pressure (mmHg) time after administration (hour) 0.5 (dose 3 mg/kg i.v. bolus): −70 mmHg; Decrease in systolic blood pressure (mmHg) time after administration (hour) 4 (dose 3 mg/kg i.v. bolus): −21 mmHg |
| Cl.Clc1ccccc1CN1CCC(=C2c3ccccc3C=Cc3ccccc32)CC1 [Example 128, 1-(2-Chlorobenzyl)-4-(5H-Dibenzo[a,d]cyclohepten-5-ylidene)piperidine hydrochloride] | −129 mmHg | −8 mmHg |  |
| CC(=O)Nc1ccc(CCCN2CCC(=C3c4ccccc4C=Cc4ccccc43)CC2)cc1.Cl.Cl [Example 249, 1-(4-Acetylaminophenyl)-3-(4-(5H-Dibenzo[a,d]cyclohepten-5-ylidene)-1-piperidinyl)propane dihydrochloride] | −121 mmHg | −100 mmHg |  |
| COc1cc(CCCN2CCC(=C3c4ccccc4C=Cc4ccccc43)CC2)cc(OC)c1OC.Cl.Cl [Example 317, 3-(4-(5H-Dibenzo[a,d]cyclohepten-5-ylidene)-1-piperidinyl)-1-(3,4,5-trimethoxyphenyl)propane dihydrochloride] | −118 mmHg | −14 mmHg |  |
| Cl.O=C(NCCN1CCCCC1=C1c2ccccc2C=Cc2ccccc21)c1ccc([N+](=O)[O-])cc1 [Example 237, N-(2-(5H-Dibenzo[a,d]cyclohepten-5-ylidene)-1-piperidinyl)ethyl-4-nitrobenzamide hydrochloride] | −65 mmHg | −14 mmHg |  |
| COc1cccc(C=CCN2CCC(=C3c4ccccc4C=Cc4ccccc43)CC2)c1OC.Cl [Example 344, 4-(5H-Dibenzo[a,d]cyclohepten-5-ylidene)-1-(2,3-dimethoxycinnamyl)piperidine hydrochloride] |  |  | Decrease in systolic blood pressure (mmHg) time after administration (hour) 0.5 (dose 1 mg/kg i.v. bolus): −123 mmHg; Decrease in systolic blood pressure (mmHg) time after administration (hour) 4 (dose 1 mg/kg i.v. bolus): −35 mmHg |
| C1=Cc2ccccc2C(=C2CCN(Cc3cccnc3)CC2)c2ccccc21.Cl.Cl [Example 162, 4-(5H-Dibenzo[a,d]cyclohepten-5-ylidene)-1-(3-Picolyl)piperidine dihydrochloride] | −62 mmHg | −3 mmHg |  |
| Cl.N#CCCCN1CCC(=C2c3ccccc3C=Cc3ccccc32)CC1 [Example 166, 1-Cyano-4-[4-(5H-dibenzo[a,d]cyclohepten-5-ylidene)-1-piperidinyl)propane hydrochloride] |  |  | Decrease in systolic blood pressure (mmHg) time after administration (hour) 0.5 [1]: −45 mmHg; Decrease in systolic blood pressure (mmHg) time after administration (hour) 4 [1]: 6 mmHg |
| COc1ccccc1C=CCN1CCC(=C2c3ccccc3C=Cc3ccccc32)CC1.Cl [Example 347, 4-(5H-Dibenzo[a,d]cyclohepten-5-ylidene)-1-(2-methoxycinnamyl)piperidine hydrochloride] |  |  | Decrease in systolic blood pressure (mmHg) time after administration (hour) 0.5 (dose 3 mg/kg i.v. bolus): −116 mmHg; Decrease in systolic blood pressure (mmHg) time after administration (hour) 4 (dose 3 mg/kg i.v. bolus): −53 mmHg |
